# Experimental data from patent US5733719A, “Method of making an assay compound” (priority 1995, dated 1998).
# Assays:
# [1] = system: Lymphs; test: Peptidases to distinguish leukemia from non-leukemia, lymphocytes; assay type: cell-based, human; set-up: unit not given here
# Description: (§1) Artificial intelligence was used to analyze data of cellular enzyme functions, and determine normal and disease states. Peptidases were used to distinguish leukemia from non-leukemia (output pattern). For input patterns lymphocyte and granulocyte cell types were used with aminopeptidases, cathepsins and dipeptidylpeptidase enzyme activities. In this Example, illustrated in Tables 6A-6C, three normals and three leukemia patients were used as known output patterns for the neural network to learn (in practice, the larger the learning set the more accurate unknown prediction will be). Unknowns were then presented to the learned algorithm as shown in the test case examples. Clinical diagnosis was confirmed by physicians. The trained neural network was able to correctly classify the leukemia from the non-leukemia.
# [2] = system: Grans; test: Peptidases to distinguish leukemia from non-leukemia, granulocytes; assay type: cell-based, human; set-up: unit not given here
# Description: as §1
smiles,measurement,setting,value
"C[C@H](N)C(=O)Nc1ccc2c(c1)Oc1cc(NC(=O)[C@H](C)N)ccc1C21OC(=O)c2ccccc21 [ALA, (Ala)2 Rho 110]",enzyme activity,[1]; J4 11/21/91 acute leuk.,86.00
same,enzyme activity,[1]; J4 12/2/91 AL,68.10
same,enzyme activity,[1]; J4 12/3/91 acute leuk.,74.64
same,enzyme activity,[1]; J5 11/27/91 AML,92.44
same,enzyme activity,[1]; J19 11/27/91 CLL,47.78
same,enzyme activity,[1]; J22 12/2/91 AML,84.42
same,enzyme activity,[1]; J22 12/9/91 AML,83.48
same,enzyme activity,[1]; N99° normal,91.07
same,enzyme activity,[1]; N191 normal,95.72
same,enzyme activity,[1]; N192 normal,103.31
same,enzyme activity,[1]; N193 normal,100.50
same,enzyme activity,[1]; N194 normal,97.02
same,enzyme activity,[1]; N195 normal,118.81
same,enzyme activity,[1]; N197 normal,96.36
same,enzyme activity,[1]; N200 normal,101.38
same,enzyme activity,[1]; N201 normal,106.72
same,enzyme activity,[1]; N202 normal,118.37
same,enzyme activity,[1]; N206 normal,122.71
same,enzyme activity,[1]; P68 tachycardia,1471.10
same,enzyme activity,[1]; P69 pancreatic CA,130.34
same,enzyme activity,[1]; P70 cirrhosis/hemobilia,141.87
same,enzyme activity,[1]; P71 ac. pyelonephritis,109.26
same,enzyme activity,[2]; J4 11/21/91 acute leuk.,193.43
same,enzyme activity,[2]; J4 12/2/91 AL,139.53
same,enzyme activity,[2]; J4 12/3/91 acute leuk.,138.89
same,enzyme activity,[2]; J5 11/27/91 AML,194.85
same,enzyme activity,[2]; J19 11/27/91 CLL,143.11
same,enzyme activity,[2]; J22 12/2/91 AML,157.12
same,enzyme activity,[2]; J22 12/9/91 AML,157.48
same,enzyme activity,[2]; N99° normal,157.30
same,enzyme activity,[2]; N191 normal,177.32
same,enzyme activity,[2]; N192 normal,154.84
same,enzyme activity,[2]; N193 normal,178.64
same,enzyme activity,[2]; N194 normal,164.00
same,enzyme activity,[2]; N195 normal,221.28
same,enzyme activity,[2]; N197 normal,188.20
same,enzyme activity,[2]; N200 normal,171.06
same,enzyme activity,[2]; N201 normal,206.06
same,enzyme activity,[2]; N202 normal,201.17
same,enzyme activity,[2]; N206 normal,232.57
same,enzyme activity,[2]; P68 tachycardia,276.07
same,enzyme activity,[2]; P69 pancreatic CA,204.02
same,enzyme activity,[2]; P70 cirrhosis/hemobilia,236.23
same,enzyme activity,[2]; P71 ac. pyelonephritis,185.37
NCC(=O)N1CCC[C@H]1C(=O)Nc1ccc2c(c1)Oc1cc(NC(=O)[C@@H]3CCCN3C(=O)CN)ccc1C21OC(=O)c2ccccc21 [GP],enzyme activity,[1]; J4 11/21/91 acute leuk.,2.72
same,enzyme activity,[1]; J4 12/2/91 AL,3.80
same,enzyme activity,[1]; J4 12/3/91 acute leuk.,4.17
same,enzyme activity,[1]; J5 11/27/91 AML,3.40
same,enzyme activity,[1]; J19 11/27/91 CLL,1.73
same,enzyme activity,[1]; J22 12/2/91 AML,1.73
same,enzyme activity,[1]; J22 12/9/91 AML,3.01
same,enzyme activity,[1]; N99° normal,5.55
same,enzyme activity,[1]; N191 normal,4.14
same,enzyme activity,[1]; N192 normal,3.00
same,enzyme activity,[1]; N193 normal,3.00
same,enzyme activity,[1]; N194 normal,5.22
same,enzyme activity,[1]; N195 normal,5.24
same,enzyme activity,[1]; N197 normal,5.97
same,enzyme activity,[1]; N200 normal,5.38
same,enzyme activity,[1]; N201 normal,6.53
same,enzyme activity,[1]; N202 normal,6.61
same,enzyme activity,[1]; N206 normal,7.09
same,enzyme activity,[1]; P68 tachycardia,5.92
same,enzyme activity,[1]; P69 pancreatic CA,6.80
same,enzyme activity,[1]; P70 cirrhosis/hemobilia,6.68
same,enzyme activity,[1]; P71 ac. pyelonephritis,3.55
same,enzyme activity,[2]; J4 11/21/91 acute leuk.,10.75
same,enzyme activity,[2]; J4 12/2/91 AL,11.08
same,enzyme activity,[2]; J4 12/3/91 acute leuk.,1.28
same,enzyme activity,[2]; J5 11/27/91 AML,8.95
same,enzyme activity,[2]; J19 11/27/91 CLL,1.39
same,enzyme activity,[2]; J22 12/2/91 AML,13.98
same,enzyme activity,[2]; J22 12/9/91 AML,11.52
same,enzyme activity,[2]; N99° normal,13.41
same,enzyme activity,[2]; N191 normal,11.20
same,enzyme activity,[2]; N192 normal,11.22
same,enzyme activity,[2]; N193 normal,8.87
same,enzyme activity,[2]; N194 normal,12.49
same,enzyme activity,[2]; N195 normal,13.31
same,enzyme activity,[2]; N197 normal,15.85
same,enzyme activity,[2]; N200 normal,12.74
same,enzyme activity,[2]; N201 normal,15.92
same,enzyme activity,[2]; N202 normal,14.44
same,enzyme activity,[2]; N206 normal,17.96
same,enzyme activity,[2]; P68 tachycardia,16.08
same,enzyme activity,[2]; P69 pancreatic CA,16.21
same,enzyme activity,[2]; P70 cirrhosis/hemobilia,16.42
same,enzyme activity,[2]; P71 ac. pyelonephritis,11.07
CC(C)C[C@H](N)C(=O)NCC(=O)Nc1ccc2c(c1)Oc1cc(NC(=O)CNC(=O)[C@@H](N)CC(C)C)ccc1C21OC(=O)c2ccccc21 [LG],enzyme activity,[1]; J4 11/21/91 acute leuk.,0.16
same,enzyme activity,[1]; J4 12/2/91 AL,0.18
same,enzyme activity,[1]; J4 12/3/91 acute leuk.,0.19
same,enzyme activity,[1]; J5 11/27/91 AML,0.23
same,enzyme activity,[1]; J19 11/27/91 CLL,0.02
same,enzyme activity,[1]; J22 12/2/91 AML,0.02
same,enzyme activity,[1]; J22 12/9/91 AML,0.61
same,enzyme activity,[1]; N99° normal,0.85
same,enzyme activity,[1]; N191 normal,2.42
same,enzyme activity,[1]; N192 normal,3.45
same,enzyme activity,[1]; N193 normal,1.56
same,enzyme activity,[1]; N194 normal,2.06
same,enzyme activity,[1]; N195 normal,1.93
same,enzyme activity,[1]; N197 normal,1.79
same,enzyme activity,[1]; N200 normal,1.55
same,enzyme activity,[1]; N201 normal,1.57
same,enzyme activity,[1]; N202 normal,1.28
same,enzyme activity,[1]; N206 normal,3.12
same,enzyme activity,[1]; P68 tachycardia,0.78
same,enzyme activity,[1]; P69 pancreatic CA,2.00
same,enzyme activity,[1]; P70 cirrhosis/hemobilia,0.79
same,enzyme activity,[1]; P71 ac. pyelonephritis,0.68
same,enzyme activity,[2]; J4 11/21/91 acute leuk.,0.85
same,enzyme activity,[2]; J4 12/2/91 AL,0.79
same,enzyme activity,[2]; J4 12/3/91 acute leuk.,1.06
same,enzyme activity,[2]; J5 11/27/91 AML,2.51
same,enzyme activity,[2]; J19 11/27/91 CLL,36.35
same,enzyme activity,[2]; J22 12/2/91 AML,1.56
same,enzyme activity,[2]; J22 12/9/91 AML,1.94
same,enzyme activity,[2]; N99° normal,2.022
same,enzyme activity,[2]; N191 normal,5.37
same,enzyme activity,[2]; N192 normal,6.78
same,enzyme activity,[2]; N193 normal,3.65
same,enzyme activity,[2]; N194 normal,3.52
same,enzyme activity,[2]; N195 normal,4.11
same,enzyme activity,[2]; N197 normal,4.41
same,enzyme activity,[2]; N200 normal,3.40
same,enzyme activity,[2]; N201 normal,3.14
same,enzyme activity,[2]; N202 normal,2.70
same,enzyme activity,[2]; N206 normal,6.01
same,enzyme activity,[2]; P68 tachycardia,2.52
same,enzyme activity,[2]; P69 pancreatic CA,3.53
same,enzyme activity,[2]; P70 cirrhosis/hemobilia,2.20
same,enzyme activity,[2]; P71 ac. pyelonephritis,4.00
"NCCCC[C@H](N)C(=O)Nc1ccc2c(c1)Oc1cc(NC(=O)[C@@H](N)CCCCN)ccc1C21OC(=O)c2ccccc21 [LYS, (H--L--Lys)2 Rho 110-4TFA]",enzyme activity,[1]; J4 11/21/91 acute leuk.,0.77
same,enzyme activity,[1]; J4 12/2/91 AL,1.81
same,enzyme activity,[1]; J4 12/3/91 acute leuk.,1.64
same,enzyme activity,[1]; J5 11/27/91 AML,5.71
same,enzyme activity,[1]; J19 11/27/91 CLL,0.98
same,enzyme activity,[1]; J22 12/2/91 AML,0.74
same,enzyme activity,[1]; J22 12/9/91 AML,1.20
same,enzyme activity,[1]; N99° normal,0.33
same,enzyme activity,[1]; N191 normal,1.18
same,enzyme activity,[1]; N192 normal,0.56
same,enzyme activity,[1]; N193 normal,0.52
same,enzyme activity,[1]; N194 normal,0.93
same,enzyme activity,[1]; N195 normal,1.07
same,enzyme activity,[1]; N197 normal,0.70
same,enzyme activity,[1]; N200 normal,0.90
same,enzyme activity,[1]; N201 normal,1.05
same,enzyme activity,[1]; N202 normal,0.71
same,enzyme activity,[1]; N206 normal,1.65
same,enzyme activity,[1]; P68 tachycardia,1.51
same,enzyme activity,[1]; P69 pancreatic CA,1.22
same,enzyme activity,[1]; P70 cirrhosis/hemobilia,1.02
same,enzyme activity,[1]; P71 ac. pyelonephritis,0.91
same,enzyme activity,[2]; J4 11/21/91 acute leuk.,3.01
same,enzyme activity,[2]; J4 12/2/91 AL,4.09
same,enzyme activity,[2]; J4 12/3/91 acute leuk.,3.19
same,enzyme activity,[2]; J5 11/27/91 AML,14.86
same,enzyme activity,[2]; J19 11/27/91 CLL,4.41
same,enzyme activity,[2]; J22 12/2/91 AML,1.41
same,enzyme activity,[2]; J22 12/9/91 AML,1.90
same,enzyme activity,[2]; N99° normal,0.95
same,enzyme activity,[2]; N191 normal,1.20
same,enzyme activity,[2]; N192 normal,1.20
same,enzyme activity,[2]; N193 normal,1.43
same,enzyme activity,[2]; N194 normal,1.56
same,enzyme activity,[2]; N195 normal,2.53
same,enzyme activity,[2]; N197 normal,1.59
same,enzyme activity,[2]; N200 normal,1.46
same,enzyme activity,[2]; N201 normal,2.06
same,enzyme activity,[2]; N202 normal,13.22
same,enzyme activity,[2]; N206 normal,3.11
same,enzyme activity,[2]; P68 tachycardia,3.09
same,enzyme activity,[2]; P69 pancreatic CA,2.14
same,enzyme activity,[2]; P70 cirrhosis/hemobilia,2.33
same,enzyme activity,[2]; P71 ac. pyelonephritis,4.17
